Proliferative capacity and neurite network data for 2 substances are collected here from paper PMC9732821, “Neurotrophic Activity and Its Modulation by Zinc Ion of a Dimeric Peptide Mimicking the Brain-Derived Neurotrophic Factor N-Terminal Region” (ACS Chemical Neuroscience, 2022).

One assay relates to undifferentiated cells. Particulars: cited from earlier work. The text has this: Previous functional studies agree in identifying the N-terminal region as a pivotal NT domain for the binding selectivity and activation of Trks.[25]−[27] However, most of these information were obtained from the NGF-TrkA system.[28],[29] On the other hand, the BDNF N-terminal region has been less investigated. […] Mo ...

The subject of a further assay is SH-SY5Y cells. In words: neurite outgrowth of differentiated SH-SY5Y cells. It counts as cell-based, human. The settings on record: 3 days after 5 days retinoic acid. The procedure: Figure 3 Neurite outgrowth stimulated by BDNF and its mimetic peptide ligands. (A) Top, left: schematic timeline of the experiment. SH-SY5Y cells were differentiated for 5 days (d1–5) by addition of retinoic acid (RA, gray bar) in the cell medium. Then, cells were stimulated for 3 days (d6–8) with 150 ng/mL BDNF or different concentrations of its peptide-mimetics (black bar) or left untreated (white bar). On the right and bottom, representative images of the differentiated cells at the end of each treatment. Scale bar 50 μm. (B) Scatter dot plot of the total neurite length, normalized to the number of cell bodies present in each analyzed field. […] For each field, an average of 50–200 cells were counted. […] (C) Representative fluorescence images of DIV3 Ren cells stained with DAPI (blue) and β3-tubulin (green) after differentiation with the standard medium (CTRL), or with the standard medium supplemented with 50 ng/mL BDNF or with 1 μM d-bdnf. […] (D) Column plot of the mean ± SD fraction of β3-tubulin (green) positive on the total cells, counted in the DAPI channel of the analyzed fields (nfields) (CTRL: nfields = 10 and total ncells = 4756; BDNF: nfields = 11 and total ncells = 4330; d-bdnf: nfields = 10 and total ncells = 5619 cells; ****p < 0.0001, *p < 0.05 according to the one-way ANOVA with Dunnett’s multiple comparison test). […]

For “HSDPARRGELSV-NH2 [m-bdnf, linear peptide fragment encompassing the first 12 amino acids of the mature NT N-terminal]”, in the assay with undifferentiated cells, the proliferative capacity result is “displays proliferative capacity in undifferentiated cells”.

In the case of “HSDPARRGELSVC-C-VSLEGRRAPDSH (disulfide) [d-bdnf]”, the neurite network entry in the assay with SH-SY5Y cells (1 and 5 μM, compared with BDNF 150 ng/mL) is on record as “able to elicit a neurite network similar to that raised by nM concentrations of BDNF”; in the assay with SH-SY5Y cells (higher doses (10 μM)), “not able to produce the same effect”.
